According to a melting point compilation (Tetko et al.; mined from patent text by program, amines drawn as free bases though some values may be those of a salt):

Row | SMILES | melting point
1 | CCn1c(=O)n(Cc2ccccc2)c(=O)c2cc(C(=O)OCc3ccccc3)sc21 | 147 to 148 °C
2 | Cc1nnc(NC(=O)C2c3ccccc3Oc3ccccc32)o1 | 261 to 263 °C
3 | COC(=O)c1cc(I)c[nH]1 | 77 to 78 °C
4 | CC1(C)CCC(C)(C)c2cc(OCc3ccc(C=O)cc3)ccc21 | 102 to 104 °C
5 | Cc1cc(NC(=O)c2ccn3c2CSC3c2cccnc2)c2ccccc2c1 (stereo not drawn) | 172 °C
6 | CCCCCCCCc1cnc(-c2ccc(OCC(C)OCCC)cc2)nc1 (stereo not drawn) | 37.4 °C
7 | Fc1cc(OC23CC4CC(CC(C4)C2)C3)ccc1N1CCCC1 | 99 to 106 °C
8 | O=C1NCC=NN1c1ccc(C(CCl)c2ccc(Cl)cc2)c(C(F)(F)F)c1 (stereo not drawn) | 157 to 158 °C
9 | CC(C)CCn1c(=O)c(=NNc2ccccc2)c(=O)n(-c2ccccc2)c2ccccc21 | 143 °C
10 | CCOC(=O)CCc1c(C)c(NC(=O)CC(C)(C)C)c(C)c2c1OCC2c1ccc(C(C)C)cc1 (stereo not drawn) | 150 to 151 °C
11 | COc1ccc2c(-c3ccccc3)c([N+](=O)[O-])oc2c1 | 100 to 106 °C
12 | Cc1cccc(N2C(=S)SCC2(O)CC(C)C)n1 (stereo not drawn) | 95 °C
13 | CC(C)C(C(=O)O)c1ccc(N=[N+]=[N-])cc1 (stereo not drawn) | 95 to 97 °C
14 | CCOC(=O)c1c(C(F)(F)F)[nH]cc(-c2cc(OC(C)C)c(Cl)cc2F)c1=O | 118 to 119 °C
15 | O=C1CCCc2sc(CCN3CCC(c4coc5cc(F)ccc45)CC3)cc2N1 | 176 to 178 °C
16 | CCNC(=O)n1nc(Oc2c(Cl)cc(C(F)(F)F)cc2Cl)c(Cl)c1C | 85 to 86 °C
17 | C=CCN(C(=O)C(C#N)=CNC(=N)N1CC(C)(C)NC1=O)c1cccc(C(F)(F)F)c1 | 184 to 185 °C
18 | CCOC(=O)CN1C(=O)c2ccc3ccccc3c2S1(=O)=O | 149 to 150 °C
19 | COc1cc(C(C)C(=O)O)ccc1-c1ccc(F)cc1 (stereo not drawn) | 133 to 136 °C
20 | COCOc1cc(OC)c(OC)cc1-c1c(C(=O)OC)[nH]c(C(=O)OC)c1-c1ccc(OC)c(OC)c1 | 162 to 163 °C
21 | CCOC(=O)C(O)=CC=C(SC)C(=O)c1ccc(N2CCCCC2)cc1 | 65 °C
22 | CCOc1nn(Cc2ccc(OC)c(OCc3nc(-c4ccccc4)oc3C)c2)cc1CCC(=O)O | 136 to 137 °C
23 | COc1cc(Nc2c(C#N)cnc3cc(-c4csc(CN5CCN(C)CC5)c4)ccc23)c(Cl)cc1Cl | 206 to 209 °C
24 | CCCCCCCCCC(=O)OCc1cccn2c(=O)c(CCN3CCC(N4Cc5ccc(F)cc5O4)CC3)c(C)nc12 | 112 °C

Row | SMILES | melting point
25 | CCC(CC)(CO)NC(=S)NC(=O)c1ccccc1 | 161 to 163 °C
26 | O=[N+]([O-])C=C1NCC(c2ccccc2)O1 (stereo not drawn) | 139 to 141 °C
27 | CCCc1c(Cc2ccc(-c3ccccc3-c3nnn[nH]3)cc2)c(O)nc2ccnn12 | 260 °C
28 | CCOC(=O)c1cnc2n(c1=O)C(C)CCC2=NNC(=O)c1ccc2c(c1)OCO2 (stereo not drawn) | 183 to 185 °C
29 | COc1cc2cc(C(=O)Nc3cc(NC(=O)OCc4ccccc4)c4ccccc4c3CCCl)[nH]c2c(OC)c1OC | 58 to 62 °C
30 | Cc1cc(-n2ccnc2)c2cccc(OCc3c(Cl)ccc(S(=O)(=O)N4CCC[C@H]4C(=O)NCC4CCN(Cc5ccccn5)CC4)c3Cl)c2n1 | 100 °C
31 | O=Cc1cc(Oc2c(Cl)cc(-n3ncc(=O)[nH]c3=O)cc2Cl)ccc1O | 146 to 150 °C
32 | CCOCc1nc2c(N)nc(C)c(C)c2n1CCOCCCc1cncnc1 | 127 to 129 °C
33 | Cc1cc2c(cc1C)C(=O)CCC2 | 47 to 48 °C
34 | O=C1Nc2ccc(Oc3cc(F)c(C(F)(F)F)c(Cl)c3)cc2C12CC2 | 168 to 170 °C
35 | COCO[C@@H](C(=O)OC)[C@@H](Sc1ccccc1[N+](=O)[O-])c1ccc(OC)cc1 | 155 to 158 °C
36 | CC(=C1SC(=O)NC1=O)c1cccc(OCCCOc2c(-c3ccc(F)cc3)n(C)c3ccccc3c2=O)c1 | 168 to 170 °C
37 | CCC(CCCc1cccnc1)NC(=O)C(O)c1ccccc1 (stereo not drawn) | 122 to 124 °C
38 | COC(=O)c1cc2c3cc(Br)ccc3n(Cc3ccccc3)c2s1 | 134 to 135 °C
39 | CCCCCCCNC(=O)c1ccc(CCCC)cc1 | 37 to 38 °C
40 | CCN(CC)C(=O)Nc1c(C)c(C)c2c(c1C)C(c1ccc(C(C)C)cc1)CO2 (stereo not drawn) | 79 to 81 °C
41 | CC(=O)OC1=CCc2c(Oc3ccc(NC(=O)c4ccc(Cl)c(Cl)c4)cn3)cccc21 | 161 to 164 °C
42 | CC(=O)Nc1ccc(S(=O)(=O)NC(=N)c2cnccn2)cc1 | 270 to 274 °C
43 | Cn1cc(C(=S)NCc2ccc(Cl)cc2)c(=O)c2cc(I)ccc21 | 153 to 155 °C
44 | COC(=O)Cc1ccc(CNC(=O)C2Cc3ccccc3N2S(=O)(=O)c2ccc(-c3ccc(F)cc3C)cc2)cc1 (stereo not drawn) | 71 to 75 °C
45 | Oc1cccc2c1nc(-c1c(F)cccc1F)n2Cc1c(F)cccc1F | 257 to 259 °C
46 | COc1ccc2[nH]c3c(c4c(c5c6cc(OC)ccc6n(C)c35)C(=O)N(C)C4=O)c2c1 | > 330 °C
47 | CNC(=O)C[C@@H]1N=C(c2ccc(Cl)cc2)c2c(sc(C)c2C)-n2c(C)nnc21 | 143 to 145 °C
48 | CN1C(=O)CCC(C)(C)c2cc(C(=O)Nc3ccc(C(=O)O)cc3)ccc21 | > 275 °C
